Active and inactive are the calls of the source. No cut-off for these calls is given here.
Experiments:
[1] = target: Induced myeloid leukemia cell differentiation protein Mcl-1 (Homo sapiens, UniProt Q07820); assay: Inhibition of FAM-Bid binding to human MCL1 expressed in Escherichia coli BL21 after 30 mins by fluorescence polarization assay
[2] = Cytotoxicity against HEK293T cells assessed as reduction in cell viability at 0.33 to 100 uM after 72 hrs by MTT assay; assay type: toxicity, cell-based; conditions: human, hek-293t
NCI60 = assay: Cytotoxicity against human NCI60 cells assessed as cell growth inhibition up to 10 uM after 48 hrs by SRB assay; assay type: functional, cell-based
[3] = Cytotoxicity against mouse CT26 cells assessed as reduction in cell viability after 72 hrs by MTT assay; assay type: functional, cell-based; conditions: Mus musculus, CT26, 72 h
[4] = Cytotoxicity against human DU145 cells assessed as reduction in cell viability after 72 hrs by MTT assay; assay type: functional, cell-based, DU-145; conditions: Homo sapiens, DU-145, 72 h
[5] = Cytotoxicity against African green monkey Vero cells assessed as reduction in cell viability at 0.33 to 100 uM after 72 hrs by MTT assay; assay type: toxicity, cell-based; conditions: chlorocebus sabaeus
cells [6] = conditions: Homo sapiens, MCF7, 72 h
Description: Cytotoxicity against human MCF7 cells assessed as reduction in cell viability after 72 hrs by MTT assay

[7] = target: Apoptosis regulator Bcl-2 (Homo sapiens, UniProt P10415); assay: Inhibition of FAM-Bid binding to human BCL2 expressed in Escherichia coli BL21 after 30 mins by fluorescence polarization assay
Chain of Apoptosis regulator Bcl-2 (P10415 whole entry): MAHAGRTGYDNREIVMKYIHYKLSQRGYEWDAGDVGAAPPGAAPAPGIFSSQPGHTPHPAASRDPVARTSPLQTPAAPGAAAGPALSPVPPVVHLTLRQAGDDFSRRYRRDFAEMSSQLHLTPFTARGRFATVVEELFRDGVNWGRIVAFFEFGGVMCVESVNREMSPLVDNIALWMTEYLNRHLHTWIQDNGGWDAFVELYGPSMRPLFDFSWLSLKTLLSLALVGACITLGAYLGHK

cells [8] = conditions: Homo sapiens, HCT-116, 72 h
Description: Cytotoxicity against human HCT116 cells assessed as reduction in cell viability after 72 hrs by MTT assay

[9] = Cytotoxicity against human ovarian cancer cells assessed as cell growth inhibition after 48 hrs by SRB assay; assay type: functional; conditions: Cancer cell lines
[10] = Cytotoxicity against human leukemia cells assessed as cell growth inhibition after 48 hrs by SRB assay; assay type: functional
[11] = Cytotoxicity against human prostate cancer cells assessed as cell growth inhibition after 48 hrs by SRB assay; assay type: functional; conditions: Cancer cell lines
[12] = Cytotoxicity against human CNS cancer cells assessed as cell growth inhibition after 48 hrs by SRB assay; assay type: functional; conditions: Cancer cell lines
[13] = Cytotoxicity against human renal cancer cells assessed as cell growth inhibition after 48 hrs by SRB assay; assay type: functional; conditions: Cancer cell lines
[14] = Cytotoxicity against human breast cancer cells assessed as cell growth inhibition after 48 hrs by SRB assay; assay type: functional; conditions: Cancer cell lines
[15] = Cytotoxicity against human melanoma cells assessed as cell growth inhibition after 48 hrs by SRB assay; assay type: functional
[16] = Cytotoxicity against human colon cancer cells assessed as cell growth inhibition after 48 hrs by SRB assay; assay type: functional; conditions: Cancer cell lines
[17] = Cytotoxicity against human non-small cell lung cancer cells assessed as cell growth inhibition after 48 hrs by SRB assay; assay type: functional; conditions: Cancer cell lines

Chain of Induced myeloid leukemia cell differentiation protein Mcl-1 (Q07820 whole entry): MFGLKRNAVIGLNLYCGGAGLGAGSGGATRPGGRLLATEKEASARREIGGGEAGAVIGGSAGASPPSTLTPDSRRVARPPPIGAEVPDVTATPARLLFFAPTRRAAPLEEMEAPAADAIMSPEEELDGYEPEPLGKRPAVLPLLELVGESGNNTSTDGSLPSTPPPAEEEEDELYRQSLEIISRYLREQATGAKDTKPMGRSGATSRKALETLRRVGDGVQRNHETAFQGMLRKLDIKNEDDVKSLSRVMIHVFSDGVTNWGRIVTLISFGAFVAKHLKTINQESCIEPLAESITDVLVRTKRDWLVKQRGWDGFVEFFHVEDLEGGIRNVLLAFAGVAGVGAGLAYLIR

SMILES	IC50 (cells [6]) [µM]	IC50 (cells [8]) [µM]	Activity [2]	growth inhibition (GI) (NCI60)	IC50 [3] [µM]	IC50 [4] [µM]	Activity [5]	also measured
Cc1cc2c(c(O)c1-c1c(C)cc3c(c1O)/C(=C/NCCCS(=O)(=O)O)C(=O)C(O)=C3C(C)C)/C(=C/NCCCS(=O)(=O)O)C(=O)C(O)=C2C(C)C	17.7	43.1	–	–	35.6	36	–	–
Cc1cc2c(c(O)c1-c1c(C)cc3c(c1O)/C(=C/NCc1ccco1)C(=O)C(O)=C3C(C)C)/C(=C/NCc1ccco1)C(=O)C(O)=C2C(C)C	> 100	42.4	–	Active	> 100	15.5	–	–
Cc1cc2c(c(O)c1-c1c(C)cc3c(c1O)/C(=C/NCc1ccc4c(c1)OCO4)C(=O)C(O)=C3C(C)C)/C(=C/NCc1ccc3c(c1)OCO3)C(=O)C(O)=C2C(C)C	> 100	8.3	–	–	> 100	29.2	–	–
COC(=O)CCCN/C=C1\C(=O)C(O)=C(C(C)C)c2cc(C)c(-c3c(C)cc4c(c3O)/C(=C/NCCCC(=O)OC)C(=O)C(O)=C4C(C)C)c(O)c21 (stereo in doubt; (+)-16)	–	–	–	–	–	–	–	IC50 [1]: 1.25 µM; Ki [1]: 0.24 µM; IC50 [7]: 0.452 µM; Ki [7]: 0.167 µM
COC(=O)CCCN/C=C1\C(=O)C(O)=C(C(C)C)c2cc(C)c(-c3c(C)cc4c(c3O)/C(=C/NCCCC(=O)OC)C(=O)C(O)=C4C(C)C)c(O)c21 (stereo in doubt; (-)-16)	–	–	–	–	–	–	–	IC50 [1]: 0.937 µM; Ki [1]: 0.178 µM; IC50 [7]: 0.375 µM; Ki [7]: 0.131 µM
COC(=O)CN/C=C1\C(=O)C(O)=C(C(C)C)c2cc(C)c(-c3c(C)cc4c(c3O)/C(=C/NCC(=O)OC)C(=O)C(O)=C4C(C)C)c(O)c21	–	–	Non-Toxic	Active	–	–	Non-Toxic	IC50 [1]: 1.43 µM; Ki [1]: 0.276 µM; GI50 [9]: 1.74 µM; GI50 [10]: 1.88 µM; GI50 [11]: 1.92 µM; GI50 [12]: 1.63 µM; GI50 [13]: 2.19 µM; GI50 [14]: 2.44 µM; GI50 [15]: 2.84 µM; IC50 [7]: 0.103 µM; Ki [7]: 0.005 µM; GI50 [16]: 1.63 µM; GI50 [17]: 1.65 µM
COC(=O)CCCN/C=C1\C(=O)C(O)=C(C(C)C)c2cc(C)c(-c3c(C)cc4c(c3O)/C(=C/NCCCC(=O)OC)C(=O)C(O)=C4C(C)C)c(O)c21 (stereo in doubt; 16)	–	–	–	Active	–	–	–	–
Cc1cc2c(c(O)c1-c1c(C)cc3c(c1O)/C(=C/NC(C)(C)C(C)(C)C)C(=O)C(O)=C3C(C)C)/C(=C/NC(C)(C)C(C)(C)C)C(=O)C(O)=C2C(C)C	> 100	> 100	–	Active	5.4	> 100	–	–
COC(=O)[C@H](CCSC)N/C=C1\C(=O)C(O)=C(C(C)C)c2cc(C)c(-c3c(C)cc4c(c3O)/C(=C/N[C@@H](CCSC)C(=O)OC)C(=O)C(O)=C4C(C)C)c(O)c21	> 100	0.52	–	–	> 100	17.7	–	–
Cc1cc2c(c(O)c1-c1c(C)cc3c(c1O)/C(=C/NCc1ccccc1)C(=O)C(O)=C3C(C)C)/C(=C/NCc1ccccc1)C(=O)C(O)=C2C(C)C	> 100	83.1	–	Active	> 100	21.9	–	–
Cc1cc2c(c(O)c1-c1c(C)cc3c(c1O)/C(=C/NC(C)(C)C)C(=O)C(O)=C3C(C)C)/C(=C/NC(C)(C)C)C(=O)C(O)=C2C(C)C	> 100	> 100	–	Active	12.8	17.2	–	–
COC(=O)CCN/C=C1\C(=O)C(O)=C(C(C)C)c2cc(C)c(-c3c(C)cc4c(c3O)/C(=C/NCCC(=O)OC)C(=O)C(O)=C4C(C)C)c(O)c21	5.64	5.24	Non-Toxic	–	4.25	9.47	Non-Toxic	IC50 [1]: 2.96 µM; Ki [1]: 0.579 µM; IC50 [7]: 0.286 µM; Ki [7]: 0.09 µM
COC(=O)[C@@H](N/C=C1\C(=O)C(O)=C(C(C)C)c2cc(C)c(-c3c(C)cc4c(c3O)/C(=C/N[C@H](C(=O)OC)C(C)C)C(=O)C(O)=C4C(C)C)c(O)c21)C(C)C	77.3	77.1	–	–	5.85	12.1	–	–
Cc1cc2c(c(O)c1-c1c(C)cc3c(c1O)/C(=C/NCCCC(=O)O)C(=O)C(O)=C3C(C)C)/C(=C/NCCCC(=O)O)C(=O)C(O)=C2C(C)C	20	32.3	Non-Toxic	–	28.8	18.1	Non-Toxic	IC50 [1]: 0.661 µM; Ki [1]: 0.094 µM; IC50 [7]: 0.596 µM; Ki [7]: 0.235 µM
COC(=O)c1ccccc1N/C=C1\C(=O)C(O)=C(C(C)C)c2cc(C)c(-c3c(C)cc4c(c3O)/C(=C/Nc3ccccc3C(=O)OC)C(=O)C(O)=C4C(C)C)c(O)c21	24.7	37.3	–	–	21.4	20.9	–	–

Continued, in another order:

IC50 (cells [6]) [µM]	IC50 (cells [8]) [µM]	SMILES	Activity [2]	growth inhibition (GI) (NCI60)	IC50 [3] [µM]	IC50 [4] [µM]	Activity [5]	also measured
14.4	26.8	Cc1cc2c(c(O)c1-c1c(C)cc3c(c1O)/C(=C/NCC(=O)O)C(=O)C(O)=C3C(C)C)/C(=C/NCC(=O)O)C(=O)C(O)=C2C(C)C	Non-Toxic	Active	48.9	34.8	Non-Toxic	IC50 [1]: 0.521 µM; Ki [1]: 0.121 µM; IC50 [7]: 0.573 µM; Ki [7]: 0.224 µM
> 100	80.3	Cc1cc2c(c(O)c1-c1c(C)cc3c(c1O)/C(=C/NC1CCCCC1)C(=O)C(O)=C3C(C)C)/C(=C/NC1CCCCC1)C(=O)C(O)=C2C(C)C	–	Active	25.2	20.7	–	–
> 100	> 100	Cc1cc2c(c(O)c1-c1c(C)cc3c(c1O)/C(=C/Nc1ccc(C(C)(C)C)cc1)C(=O)C(O)=C3C(C)C)/C(=C/Nc1ccc(C(C)(C)C)cc1)C(=O)C(O)=C2C(C)C	–	Active	12.8	> 100	–	–
8.95	13.1	COC(=O)CCCCCCN/C=C1\C(=O)C(O)=C(C(C)C)c2cc(C)c(-c3c(C)cc4c(c3O)/C(=C/NCCCCCCC(=O)OC)C(=O)C(O)=C4C(C)C)c(O)c21	Non-Toxic	Active	5.59	11.4	Non-Toxic	–
> 100	> 100	Cc1cc2c(c(O)c1-c1c(C)cc3c(c1O)/C(=C/NC1CCC(C(C)(C)C)CC1)C(=O)C(O)=C3C(C)C)/C(=C/NC1CCC(C(C)(C)C)CC1)C(=O)C(O)=C2C(C)C (stereo unspecified)	–	–	21.7	> 100	–	–
19.4	21	Cc1cc2c(c(O)c1-c1c(C)cc3c(c1O)/C(=C/NCCC(=O)O)C(=O)C(O)=C3C(C)C)/C(=C/NCCC(=O)O)C(=O)C(O)=C2C(C)C	Non-Toxic	–	67.3	21.6	Non-Toxic	–
11.5	0.64	COC(=O)CCCCCN/C=C1\C(=O)C(O)=C(C(C)C)c2cc(C)c(-c3c(C)cc4c(c3O)/C(=C/NCCCCCC(=O)OC)C(=O)C(O)=C4C(C)C)c(O)c21	Non-Toxic	Active	13.8	8.56	Non-Toxic	IC50 [1]: 1.02 µM; Ki [1]: 0.195 µM; GI50 [9]: 2.65 µM; GI50 [10]: 1.03 µM; GI50 [11]: 1.41 µM; GI50 [12]: 1.46 µM; GI50 [13]: 2.08 µM; GI50 [14]: 1.72 µM; GI50 [15]: 2.35 µM; IC50 [7]: 0.84 µM; Ki [7]: 0.348 µM; GI50 [16]: 1.44 µM; GI50 [17]: 1.51 µM
> 100	> 100	Cc1cc2c(c(O)c1-c1c(C)cc3c(c1O)/C(=C/NC14CC5CC(CC(C5)C1)C4)C(=O)C(O)=C3C(C)C)/C(=C/NC13CC4CC(CC(C4)C1)C3)C(=O)C(O)=C2C(C)C	–	–	> 100	> 100	–	–
15.9	22.2	Cc1cc2c(c(O)c1-c1c(C)cc3c(c1O)/C(=C/NCCCCC(=O)O)C(=O)C(O)=C3C(C)C)/C(=C/NCCCCC(=O)O)C(=O)C(O)=C2C(C)C	Non-Toxic	–	4.46	20.7	Non-Toxic	IC50 [1]: 0.478 µM; Ki [1]: 0.085 µM; IC50 [7]: 0.458 µM; Ki [7]: 0.171 µM
> 100	> 100	Cc1cc2c(c(O)c1-c1c(C)cc3c(c1O)/C(=C/N[C@H]1C[C@@H]4C[C@H]([C@@H]1C)C4(C)C)C(=O)C(O)=C3C(C)C)/C(=C/N[C@H]1C[C@@H]3C[C@H]([C@@H]1C)C3(C)C)C(=O)C(O)=C2C(C)C	–	–	> 100	> 100	–	–
15.9	48.9	Cc1cc2c(c(O)c1-c1c(C)cc3c(c1O)/C(=C/NCCS(=O)(=O)O)C(=O)C(O)=C3C(C)C)/C(=C/NCCS(=O)(=O)O)C(=O)C(O)=C2C(C)C	–	–	3.19	28.9	–	–
17.7	23.1	Cc1cc2c(c(O)c1-c1c(C)cc3c(c1O)/C(=C/NCCCCCC(=O)O)C(=O)C(O)=C3C(C)C)/C(=C/NCCCCCC(=O)O)C(=O)C(O)=C2C(C)C	Non-Toxic	–	4.54	27.5	Non-Toxic	–

Source: ChEMBL document CHEMBL3864191 (ACS Med Chem Lett, 2016)
